Source: article PMC10425210 (The Journal of Clinical Investigation, 2023)
Like-named read-outs stand apart in the source and are kept apart here.

Experiment: Plasma pharmacokinetics after a single subcutaneous administration of LEN
Format: in vivo, rhesus macaques
Details: male, rhesus monkey, plasma; for concentration at 9 week: week 9 post dose; for concentration at 10 week: week 10 post dose; for concentration at 11 week: week 11 post dose; for concentration at 12 week: week 12 post dose; for concentration at 13 week: week 13 post dose; for concentration at 14 week: week 14 post dose; for concentration at 15 week: week 15 post dose; for concentration at 16 week: week 16 post dose; for concentration at 17 weeks post challenge: week 17 post challenge; for concentration at 18 weeks post challenge: week 18 post challenge; for concentration at 0 weeks post challenge: week 0 post challenge; for concentration at 1 weeks post challenge: week 1 post challenge; for concentration at 2 weeks post challenge: week 2 post challenge; for concentration at 3 weeks post challenge: week 3 post challenge; for concentration at 4 weeks post challenge: week 4 post challenge; for concentration at 5 weeks post challenge: week 5 post challenge; for concentration at 6 weeks post challenge: week 6 post challenge; for concentration at 7 weeks post challenge: week 7 post challenge; for concentration at 0.14 week / concentration at 0.43 week / concentration at 1 week / concentration at 2 week / concentration at 17 week / concentration at 18 week / concentration at 19 week / concentration at 20 week / concentration at 21 week / concentration at 22 week / concentration at 23 week / concentration at 24 week / concentration at 25 week: Indian-origin, outbred; for concentration at 0.14 week: week 0.14 post dose; for concentration at 0.43 week: week 0.43 post dose; for concentration at 1 week: week 1 post dose; for concentration at 2 week: week 2 post dose; for concentration at 17 week: week 17 post dose; for concentration at 18 week: week 18 post dose; for concentration at 19 week: week 19 post dose; for concentration at 20 week: week 20 post dose; for concentration at 21 week: week 21 post dose; for concentration at 22 week: week 22 post dose; for concentration at 23 week: week 23 post dose; for concentration at 24 week: week 24 post dose; for concentration at 25 week: week 25 post dose; for half-life: sc; for concentration at 3 weeks: week 3 post dose; for concentration at 4 weeks: week 4 post dose; for concentration at 5 weeks: week 5 post dose; for concentration at 6 weeks: week 6 post dose
Description: All animals were housed at Bioqual Inc. For the in vivo SHIV stock titration study, 8 untreated outbred Indian-origin male rhesus macaques aged 3–5 years were challenged intrarectally per round for a total of 5 challenge rounds using increasing virus doses ranging from 0.625 to 100 TCID50, with the 100 TCID50 round performed twice for increased resolution (Supplemental Table 2). Plasma viral load was measured to confirm the infection status. […] Injection sites were monitored daily by veterinary staff for 2 weeks and then weekly through the end of study. On week 7, 11 animals were challenged by the intrarectal route with 1 mL RPMI containing 100 TCID50 SHIV-SF162P3. Whole blood was collected and processed into plasma and PBMCs as necessary for the assessment of routine hematology and clinical chemistry, viral load analysis, serology, and the bioanalysis of drug levels. Animals were considered protected if they remained SHIV negative by a plasma PCR assay and seronegative by enzyme immunoassay through week 10 after challenge.
Rhesus plasma samples were stored frozen at –80°C and thawed, and a 50 μL aliquot of each was treated with 200 μL acetonitrile containing an internal standard. After precipitation of the protein component, a 100 μL aliquot of the supernatant was transferred to a clean 96-well plate and mixed with 200 μL water. A 10 μL aliquot of the above solution was then injected into a Q-Exactive high resolution mass spectrometer from Thermo Electron with electrospray ionization in positive mode.

[1] = Indian-origin (outbred), subcutaneous, 50 mg/kg, Plasma LEN (Mean), 50 mg/kg sc
[2] = Indian-origin (outbred), subcutaneous, 50 mg/kg, Plasma LEN, animal CO92, 50 mg/kg
[3] = Indian-origin (outbred), subcutaneous, 50 mg/kg, Plasma LEN, animal V411, 50 mg/kg
[4] = Indian-origin (outbred), subcutaneous, 50 mg/kg, Plasma LEN, animal V430, 50 mg/kg
[5] = Indian-origin (outbred), subcutaneous, 50 mg/kg, Plasma LEN, animal V470, 50 mg/kg
[6] = Indian-origin (outbred), subcutaneous, 75 mg/kg, Plasma LEN (Mean), 75 mg/kg sc
[7] = Indian-origin (outbred), subcutaneous, 75 mg/kg, Plasma LEN, animal CP67, 75 mg/kg
[8] = Indian-origin (outbred), subcutaneous, 75 mg/kg, Plasma LEN, animal V417, 75 mg/kg
[9] = Indian-origin (outbred), subcutaneous, 75 mg/kg, Plasma LEN, animal V426, 75 mg/kg
[10] = Indian-origin (outbred), subcutaneous, 75 mg/kg, Plasma LEN, animal V435, 75 mg/kg
[11] = subcutaneous, 5 mg/kg, Plasma LEN (Mean), 5 mg/kg sc
[12] = subcutaneous, 10 mg/kg, Plasma LEN (Mean), 10 mg/kg sc
[13] = subcutaneous, 20 mg/kg, Plasma LEN (Mean), 20 mg/kg sc
[14] = subcutaneous, 50 mg/kg, Plasma LEN (Mean), 50 mg/kg sc
[15] = subcutaneous, 75 mg/kg, Plasma LEN (Mean), 75 mg/kg sc
[16] = outbred Indian-origin, subcutaneous, 5 mg/kg, Plasma LEN (Mean), 5 mg/kg sc
[17] = outbred Indian-origin, subcutaneous, 10 mg/kg, Plasma LEN (Mean), 10 mg/kg sc
[18] = outbred Indian-origin, subcutaneous, 20 mg/kg, Plasma LEN (Mean), 20 mg/kg sc
[19] = outbred Indian-origin, subcutaneous, 50 mg/kg, Plasma LEN (Mean), 50 mg/kg sc
[20] = outbred Indian-origin, subcutaneous, 75 mg/kg, Plasma LEN (Mean), 75 mg/kg sc
[21] = outbred Indian-origin, 50 mg/kg sc, mean ± SD

Molecule `CC(C)(C#Cc1ccc(-c2ccc(Cl)c3c(NS(C)(=O)=O)nn(CC(F)(F)F)c23)c([C@H](Cc2cc(F)cc(F)c2)NC(=O)Cn2nc(C(F)(F)F)c3c2C(F)(F)[C@@H]2C[C@H]32)n1)S(C)(=O)=O` [LEN, Lenacapavir] has a concentration at 9 week [1] of 51.7 nM, a concentration at 10 week [1] of 48.7 nM and a concentration at 11 week [1] of 45.5 nM. It also gave a concentration at 12 week [1] of 37.9 nM, a concentration at 13 week [1] of 37.9 nM and a concentration at 14 week [1] of 21 nM. It also gave a concentration at 15 week [1] of 18.4 nM, a concentration at 16 week [1] of 22.2 nM and a concentration at 17 weeks post challenge [2] of 13.6 nM. For the same molecule, the concentration at 18 weeks post challenge [2] was 13.1 nM, the concentration at 17 weeks post challenge [3] was 2.22 nM and the concentration at 18 weeks post challenge [3] was 2 nM. The concentration at 16 weeks post challenge (Indian-origin (outbred), subcutaneous, 50 mg/kg, Plasma LEN, animal V430, 50 mg/kg, week 16 post challenge) was 1.24 nM, the concentration at 17 weeks post challenge [4] was 1 nM and the concentration at 18 weeks post challenge [4] was 1 nM. The concentration at 17 weeks post challenge [5] was 8.55 nM, the concentration at 18 weeks post challenge [5] was 10.5 nM and the concentration at 8 week (Indian-origin (outbred), subcutaneous, 75 mg/kg, Plasma LEN (Mean), 75 mg/kg sc, week 8 post dose) was 55 nM. For the same molecule, the concentration at 9 week [6] was 72.6 nM, the concentration at 10 week [6] was 98 nM and the concentration at 11 week [6] was 71.3 nM. The concentration at 12 week [6] was 53.5 nM, the concentration at 13 week [6] was 73.8 nM and the concentration at 14 week [6] was 37.9 nM. The concentration at 15 week [6] was 24.6 nM, the concentration at 16 week [6] was 30.9 nM and the concentration at 0 weeks post challenge [7] was 154 nM. The concentration at 1 weeks post challenge [7] was 95.4 nM, the concentration at 2 weeks post challenge [7] was 136 nM and the concentration at 3 weeks post challenge [7] was 144 nM. For the same molecule, the concentration at 4 weeks post challenge [7] was 88.1 nM, the concentration at 5 weeks post challenge [7] was 87.8 nM and the concentration at 6 weeks post challenge [7] was 97.6 nM. For the same molecule, the concentration at 7 weeks post challenge [7] was 46.5 nM, the concentration at 0 weeks post challenge [8] was 158 nM and the concentration at 1 weeks post challenge [8] was 43.9 nM. It also gave a concentration at 2 weeks post challenge [8] of 52.5 nM, a concentration at 3 weeks post challenge [8] of 88.5 nM and a concentration at 4 weeks post challenge [8] of 69 nM. It also gave a concentration at 5 weeks post challenge [8] of 48.8 nM, a concentration at 6 weeks post challenge [8] of 57.3 nM and a concentration at 7 weeks post challenge [8] of 43.9 nM. It also gave a concentration at 0 weeks post challenge [9] of 178 nM, a concentration at 1 weeks post challenge [9] of 68 nM and a concentration at 2 weeks post challenge [9] of 89.7 nM. For the same molecule, the concentration at 3 weeks post challenge [9] was 144 nM, the concentration at 4 weeks post challenge [9] was 117 nM and the concentration at 5 weeks post challenge [9] was 68.2 nM. For the same molecule, the concentration at 6 weeks post challenge [9] was 132 nM, the concentration at 7 weeks post challenge [9] was 57.4 nM and the concentration at 0 weeks post challenge [10] was 28.2 nM. The concentration at 1 weeks post challenge [10] was 12.5 nM, the concentration at 2 weeks post challenge [10] was 12.4 nM and the concentration at 3 weeks post challenge [10] was 14.8 nM. It also gave a concentration at 4 weeks post challenge [10] of 11.2 nM, a concentration at 5 weeks post challenge [10] of 9.22 nM and a concentration at 6 weeks post challenge [10] of 8.59 nM. The concentration at 0.14 week [11] was 9.76 nM, the concentration at 0.43 week [11] was 5.72 nM and the concentration at 1 week [11] was 2.82 nM. For the same molecule, the concentration at 2 week [11] was 2.96 nM, the concentration at 0.14 week [12] was 19.9 nM and the concentration at 0.43 week [12] was 13.4 nM. For the same molecule, the concentration at 1 week [12] was 6.88 nM, the concentration at 2 week [12] was 8.58 nM and the concentration at 0.14 week [13] was 41.3 nM. The concentration at 0.43 week [13] was 17.8 nM, the concentration at 1 week [13] was 9.23 nM and the concentration at 2 week [13] was 16.6 nM. For the same molecule, the concentration at 0.14 week [14] was 196 nM, the concentration at 0.43 week [14] was 79 nM and the concentration at 1 week [14] was 56.5 nM. It also gave a concentration at 2 week [14] of 87.1 nM, a concentration at 17 week [14] of 22.1 nM and a concentration at 18 week [14] of 17 nM. The concentration at 19 week [14] was 11.1 nM, the concentration at 20 week [14] was 8.52 nM and the concentration at 21 week [14] was 6.49 nM. For the same molecule, the concentration at 22 week [14] was 7.23 nM, the concentration at 23 week [14] was 5.76 nM and the concentration at 24 week [14] was 6.32 nM. It also gave a concentration at 25 week [14] of 6.61 nM, a concentration at 0.14 week [15] of 498 nM and a concentration at 0.43 week [15] of 223 nM. The concentration at 1 week [15] was 162 nM, the concentration at 2 week [15] was 213 nM and the concentration at 17 week [15] was 24.5 nM. The concentration at 18 week [15] was 20.9 nM, the concentration at 19 week [15] was 16.2 nM and the concentration at 20 week [15] was 16.6 nM. The concentration at 21 week [15] was 12.3 nM, the concentration at 22 week [15] was 9.35 nM and the concentration at 23 week [15] was 10.3 nM. It also gave a concentration at 24 week [15] of 11.8 nM, a concentration at 25 week [15] of 11.6 nM and a half-life (outbred Indian-origin, 5-75 mg/kg sc, read-out: plasma drug half-life) of 14 to 56 days. The half-life (outbred Indian-origin, single sc dosing, range over 5-75 mg/kg groups, read-out: half-life) was 17 to 53 days, the concentration at 3 weeks [16] was 4.23 nM and the concentration at 4 weeks [16] was 4.14 nM. It also gave a concentration at 5 weeks [16] of 6 nM, a concentration at 6 weeks [16] of 4.42 nM and a concentration at 7 weeks (outbred Indian-origin, subcutaneous, 5 mg/kg, Plasma LEN (Mean), 5 mg/kg sc, week 7 post dose) of 5.29 nM. It also gave a concentration at 3 weeks [17] of 11.3 nM, a concentration at 4 weeks [17] of 10.2 nM and a concentration at 5 weeks [17] of 12.8 nM. It also gave a concentration at 6 weeks [17] of 7.32 nM, a concentration at 7 weeks (outbred Indian-origin, subcutaneous, 10 mg/kg, Plasma LEN (Mean), 10 mg/kg sc, week 7 post dose) of 10.1 nM and a concentration at 3 weeks [18] of 21.2 nM. The concentration at 4 weeks [18] was 23.9 nM, the concentration at 5 weeks [18] was 30.1 nM and the concentration at 6 weeks [18] was 26.8 nM. It also gave a concentration at 7 weeks (outbred Indian-origin, subcutaneous, 20 mg/kg, Plasma LEN (Mean), 20 mg/kg sc, week 7 post dose) of 27.4 nM, a concentration at 3 weeks [19] of 92.4 nM and a concentration at 4 weeks [19] of 85.3 nM. It also gave a concentration at 5 weeks [19] of 80.6 nM, a concentration at 6 weeks [19] of 71.9 nM and a concentration at 7 weeks (outbred Indian-origin, subcutaneous, 50 mg/kg, Plasma LEN (Mean), 50 mg/kg sc, week 7 post dose) of 103 nM. For the same molecule, the concentration at 3 weeks [20] was 126 nM, the concentration at 4 weeks [20] was 95.8 nM and the concentration at 5 weeks [20] was 89.9 nM. The concentration at 6 weeks [20] was 65.1 nM, the concentration at 7 weeks (outbred Indian-origin, subcutaneous, 75 mg/kg, Plasma LEN (Mean), 75 mg/kg sc, week 7 post dose) was 129 nM and the concentration at 7 weeks (outbred Indian-origin, subcutaneous, LEN exposures at the time of challenge, 11 challenged animals, week 7 postdose) was 18 to 177 nM. It also gave an AUC(0-t) (outbred Indian-origin, 5 mg/kg sc, mean ± SD) of 9.3 ± 1.9 µM·h, an AUC(0-inf) [21] of 243 ± 70 µM·h and an AUC(0-t) [21] of 179 ± 23 µM·h. The Cmax [21] was 200 ± 74 nM.
